According to patent US20250255301A1, “PESTICIDAL MIXTURES COMPRISING A PYRAZOLE COMPOUND” (BASF SE, priority 2019, published 2025):
Read-outs that look alike come from different tables or passages of the source.

What was measured:
Type in all cases: cell-based
Phytophthora infestans = conditions: single active, 7 days after inoculation
Botrytis cinerea = experiment: Activity against the grey mold Botrytis cinerea in the microtiterplate test; conditions: single active, 7 days after inoculation
From the text: Synergism can be described as an interaction where the combined effect of two or more compounds is greater than the sum of the individual effects of each of the compounds. The presence of a synergistic effect in terms of percent control or efficacy, between two mixing partners (X and Y) can be calculated using the Colby equation (Colby, S. R., 1967, Calculating Synergistic and Antagonistic Responses in Herbicide Combinations, Weeds, 15, 20-22): The measured parameters were compared to the growth of the active compound-free control variant (100%) and the fungus-free blank value to determine the relative growth in % of the pathogens in the respective active compounds. These percentages were converted into efficacies. […] The expected efficacies of active compound mixtures were determined using Colby's formula [R. S. Colby, “Calculating synergistic and antagonistic responses of herbicide combinations”, Weeds 15, 20-22 (1967)] and compared with the observed efficacies. […] The stock solutions were mixed according to the ratio, pipetted onto a micro titer plate (MTP) and diluted with water to the stated concentrations. A spore suspension of Botrci cinerea in an aqueous biomalt or yeast-bactopeptone-sodiumacetate solution was then added. The plates were placed in a water vapor-saturated chamber at a temperature of 18° C.

Septoria tritici = experiment: Activity against leaf blotch on wheat caused by Septoria tritici (microtiter plate); conditions: single active, 7 days after inoculation
From the text: Synergism can be described as an interaction where the combined effect of two or more compounds is greater than the sum of the individual effects of each of the compounds. The presence of a synergistic effect in terms of percent control or efficacy, between two mixing partners (X and Y) can be calculated using the Colby equation (Colby, S. R., 1967, Calculating Synergistic and Antagonistic Responses in Herbicide Combinations, Weeds, 15, 20-22): The measured parameters were compared to the growth of the active compound-free control variant (100%) and the fungus-free blank value to determine the relative growth in % of the pathogens in the respective active compounds. These percentages were converted into efficacies. […] The expected efficacies of active compound mixtures were determined using Colby's formula [R. S. Colby, “Calculating synergistic and antagonistic responses of herbicide combinations”, Weeds 15, 20-22 (1967)] and compared with the observed efficacies. […] The stock solutions were mixed according to the ratio, pipetted onto a micro titer plate (MTP) and diluted with water to the stated concentrations. A spore suspension of Septoria tritici in an aqueous biomalt or yeast-bactopeptone-glycerine or DOB solution was then added. The plates were placed in a water vapor-saturated chamber at a temperature of 18° C. Using an absorption photometer, the MTPs were measured at 405 nm 7 days after the inoculation.

Cercospora sojina = experiment: Activity against Cercospora sojina in the microtiter test; conditions: single active, 7 days after inoculation
From the text: Synergism can be described as an interaction where the combined effect of two or more compounds is greater than the sum of the individual effects of each of the compounds. The presence of a synergistic effect in terms of percent control or efficacy, between two mixing partners (X and Y) can be calculated using the Colby equation (Colby, S. R., 1967, Calculating Synergistic and Antagonistic Responses in Herbicide Combinations, Weeds, 15, 20-22): The measured parameters were compared to the growth of the active compound-free control variant (100%) and the fungus-free blank value to determine the relative growth in % of the pathogens in the respective active compounds. These percentages were converted into efficacies. […] The expected efficacies of active compound mixtures were determined using Colby's formula [R. S. Colby, “Calculating synergistic and antagonistic responses of herbicide combinations”, Weeds 15, 20-22 (1967)] and compared with the observed efficacies. […] The stock solutions were mixed according to the ratio, pipetted onto a micro titer plate (MTP) and diluted with water to the stated concentrations. A spore suspension of Cercospora sojina in an aqueous biomalt or yeast-bactopeptone-sodiumacetate solution was then added. The plates were placed in a water vapor-saturated chamber at a temperature of 18° C. Using an absorption photometer, the MTPs were measured at 405 nm 7 days after the inoculation.

[1] = tested on: Colletotrichum orbiculare; experiment: Activity against Colletotrichum orbiculare in the microtiterplate test; conditions: single active, 7 days after inoculation
Rhynchosporium secalis = experiment: Activity against Rhynchosporium secalis in the microtiterplate test; conditions: single active, 63 ppm, 7 days after inoculation
From the text: Synergism can be described as an interaction where the combined effect of two or more compounds is greater than the sum of the individual effects of each of the compounds. The presence of a synergistic effect in terms of percent control or efficacy, between two mixing partners (X and Y) can be calculated using the Colby equation (Colby, S. R., 1967, Calculating Synergistic and Antagonistic Responses in Herbicide Combinations, Weeds, 15, 20-22): The measured parameters were compared to the growth of the active compound-free control variant (100%) and the fungus-free blank value to determine the relative growth in % of the pathogens in the respective active compounds. These percentages were converted into efficacies. […] The expected efficacies of active compound mixtures were determined using Colby's formula [R. S. Colby, “Calculating synergistic and antagonistic responses of herbicide combinations”, Weeds 15, 20-22 (1967)] and compared with the observed efficacies. […] The stock solutions were mixed according to the ratio, pipetted onto a micro titer plate (MTP) and diluted with water to the stated concentrations. A spore suspension of Rhynchosporium secalis in an aqueous biomalt or yeast-bactopeptone-glycerine or DOB solution was then added. […] Using an absorption photometer, the MTPs were measured at 405 nm 7 days after the inoculation.

Sclerotinia sclerotiorum = experiment: Activity against Sclerotinia sclerotiorum in the microtiterplate test; conditions: single active, 7 days after inoculation

Molecule `CCN(C(=O)c1cnn(C(C)C(C)C)c1C)c1ccnnc1` (racemic) [Dimpropyridaz, 1-[(1 RS)-1,2-dimethylpropyl]-N-ethyl-5-methyl-N-pyridazin-4-yl-1H-pyrazole-4-carboxamide] has an Observed efficacy (Phytophthora infestans; 0.016 ppm) of 0%, an Observed efficacy (Phytophthora infestans; 0.063 ppm) of 4% and an Observed efficacy (Botrytis cinerea; 0.063 ppm) of 0%. It also gave an Observed efficacy (Botrytis cinerea; 0.25 ppm) of 1%, an Observed efficacy (Botrytis cinerea; 1 ppm) of 0% and an Observed efficacy (Septoria tritici; 0.063 ppm) of 5%. It also gave an Observed efficacy (Septoria tritici; 0.25 ppm) of 7%, an Observed efficacy (Cercospora sojina; 0.25 ppm) of 0% and an Observed efficacy (Cercospora sojina; 63 ppm) of 23%. For the same molecule, the Observed efficacy ([1]; 63 ppm) was 14%, the Observed efficacy (Rhynchosporium secalis) was 12% and the Observed efficacy (Sclerotinia sclerotiorum; 0.25 ppm) was 0%.

`N#Cc1ccc(Oc2ccc(C(F)(F)C(O)(Cn3ncnc3S)c3ccc(F)cc3F)nc2)cc1` (centres unmarked) [B.5)d), 4-[[6-[2-(2,4-difluorophenyl)-1,1-difluoro-2-hydroxy-3-(5-sulfanyl-1,2,4-triazol-1-yl)propyl]-3-pyridyl]oxy]benzonitrile] gave an Observed efficacy (Rhynchosporium secalis) of 70%.

For `COc1ccnc(C(=O)N[C@@H](C)C(=O)O[C@@H](C)C(c2ccc(F)cc2)c2ccc(F)cc2)c1OC(C)=O` [Florylpicoxamid, florylpicoxamid, reference compound], the Observed efficacy (Cercospora sojina; 0.25 ppm) was 6% and the Observed efficacy (Cercospora sojina; 16 ppm) was 61%.

Work on `CC(C)c1ccc(Cl)cc1CN(C(=O)c1c(C(F)F)nn(C)c1F)C1CC1` [Isoflucypram, isoflucypram, reference compound] yielded an Observed efficacy (Botrytis cinerea; 0.25 ppm) of 57% and an Observed efficacy (Septoria tritici; 0.063 ppm) of 40%.

With `Cc1cc(C(F)(F)F)nn1CC(=O)N1CCC(c2nc(C3=NOC(c4c(F)cccc4F)C3)cs2)CC1` (centres unmarked) [Oxathiapiproline, oxathiapiprolin, reference compound] the Observed efficacy (Phytophthora infestans; 0.016 ppm) was 0% and the Observed efficacy (Phytophthora infestans; 0.063 ppm) was 11%.

Molecule `CON(C(=O)c1cn(C)nc1C(F)F)C(C)Cc1c(Cl)cc(Cl)cc1Cl` (centres unmarked) [Pydiflumetofen, pydiflumetofen, reference compound] has an Observed efficacy (Botrytis cinerea; 0.063 ppm) of 42% and an Observed efficacy ([1]; 16 ppm) of 59%.

For pyrapropoyne [reference compound], the Observed efficacy (Botrytis cinerea; 1 ppm) was 26% and the Observed efficacy (Sclerotinia sclerotiorum; 1 ppm) was 27%.
